This note sets out measurements from BindingDB's records for doi:10.1021/jm00117a017 (Merck Sharp and Dohme Research Laboratories, 1988).

What is called IC50 is the concentration that inhibits the measured activity by half. Low readings indicate greater potency in that assay, high ones weaker potency in that assay.

The target of the first test is D-alanine--D-alanine ligase (Enterococcus faecalis). The test is described as follows: Antibacterial activity against D-alanyl-D-alanine ligase from Streptococcus faecalis (ATCC 8043).
In turn, `CC(=N)[PH](O)(O)CC(CCc1ccccc1)C(=O)O` (stereo not given) [2-[(1-Amino-ethyl)-hydroxy-phosphinoylmethyl]-4-phenyl-butyric acid;hydrate] returned an IC50 of 40 µM.

As for `CCC(C[PH](O)(O)C(C)=N)C(=O)O` (stereo not given) [2-[(1-Amino-ethyl)-hydroxy-phosphinoylmethyl]-butyric acid;hydrate], inhibition was half-maximal at 45 µM (IC50).

The compound `CC(=N)[PH](O)(O)CC(CC(C)C)C(=O)O` (stereo not given) [2-[(1-Amino-ethyl)-hydroxy-phosphinoylmethyl]-4-methyl-pentanoic acid;hydrate] displayed an IC50 of 30 µM.

In the case of `CCCCCCCC(C[PH](O)(O)C(C)=N)C(=O)O` (stereo not given), half-maximal inhibition (IC50) was put at 200 µM.

Compound `CCCCC(C[PH](O)(O)C(=N)CC)C(=O)O` (stereo not given) [2-[(1-Amino-propyl)-hydroxy-phosphinoylmethyl]-hexanoic acid;hydrate] displayed an IC50 of 155 µM.

In turn, `C[C@H](N)P(=O)(O)O` [1-Ammonium-ethanephosphonic acid anion] returned an IC50 of 930 µM.

Take `CC(N)P(=O)(O)CC(CCCc1ccccc1)C(=O)O` (stereo not given) [2-[(1-Amino-ethyl)-hydroxy-phosphinoylmethyl]-5-phenyl-pentanoic acid;hydrate]: half-maximal inhibition (IC50) required 50 µM.

`CC(N)P(=O)(O)CC(Cc1ccccc1)C(=O)O` (stereo not given) came in with an IC50 of 50 µM.

On to `CCCC(CP(=O)(O)C(C)N)C(=O)O` (stereo not given) [2-[(1-Amino-ethyl)-hydroxy-phosphinoylmethyl]-pentanoic acid;hydrate], for which the IC50 came to 20 µM.

Target in another test: not listed separately
The description is as above.
`CCCCCCCC(C[PH](O)(O)C(C)=N)C(=O)O` (stereo not given) had an IC50 of 12.5 µM.
